Test results reported in US20130065964A1, “PERITONEAL DIALYSIS SOLUTION” (UNIVERSIDAD DE CASTILLA LA MANCHA, priority 2010, published 2013).

System: Collagen III
Assay: Real-time RT-PCR in cultured PMCs exposed to PDF
Assay type: cell-based
Conditions: rat PMCs, 1.5% PDF diluted 1:1 in culture medium, 24 hours, aliskiren 10-100 μM, FIG. 10
Protocol: After incubating the rat PMCs in 1.5% PDF diluted 1:1 in culture medium for 24 hours, in the presence or absence of aliskiren (10-100 μM), total RNA was isolated and real-time RT-PCR was carried out as described in Material and Methods. The data is expressed as mean±SEM, n=3. * p<0.05 compared to untreated cells (control). # p<0.05, compared to cells treated with 1.5% PDF in the presence of carrier (0).
Rat peritoneal mesothelial cells were isolated by enzymatic digestion in accordance with protocols described in Hjelle J T, Golinska B T, Waters D C, et al. Perit Dial Int 1989; 9: 341-7. Briefly, female rats weighing 200-400 g of the Spragle-Dawley strain were sacrificed pursuant to Royal Decree 1201/2005, of 10 Oct., on protection of animals used for experimental and other scientific purposes. […]
The RNA expression was evaluated by real-time RT-PCR in PMCs. […] RNA quality and concentration was evaluated by spectrophotometry (Infinite 200, Tecan, Salzburg, Austria) using 1 μl of the RNA sample. […] The dissociation curves were analysed to confirm the amplification of a single PCR product. […] In each experiment, the mean cycle threshold (CT) was calculated from triplicates for each of the genes studied, enabling comparison of the gene expression after different treatments (Methods 25, 402-408 (2001). In order to normalize the data, the gene expression of β-actin was used as endogenous control.

Structure (SMILES): COCCCOc1cc(C[C@@H](C[C@H](N)[C@@H](O)C[C@H](C(=O)NCC(C)(C)C(N)=O)C(C)C)C(C)C)ccc1OC [aliskiren]
- RNAm levels for collagen III: lowered
